# Measured values reported in US12678412B2, “Substituted tolans for the modulation of microbial colonization” (BioMendics, LLC, priority 2017, dated 2026).
# Assays:
# wild type E. Coli = assay: Control of microbial growth, wild type E. coli; assay type: cell-based
# [1] = test system: Methicillin Resistant Staphylococcus aureus (MRSA USA 300); assay: Colony forming assay, spread plate, MRSA USA 300; assay type: cell-based; conditions: for Reduction of MRSA USA 300 counts: 24 h
# Protocol: A fresh culture of pathogenic isolate was used in these examples. The bacterial strains used were Methicillin Resistant Staphylococcus aureus (MRSA USA 300), Pseudomonas aeruginosa ATCC 27312, and Candida albicans ATCC 64550.
# FIG. 5 illustrates the spread plate method used in these examples. In sum, agar plates were made, bacteria were diluted to 10^6 or 10^8 CFU/mL, bacteria and drug were mixed together and then plated. Glass spreading beads were used because they give a better bacterial spread. Plates were incubated for 24 hrs then the colonies that formed were counted.
# Proliferating cultures of Methicillin Resistant Staphylococcus aureus (MRSA, USA 300) were used in a colony forming assay. Freeze-dried bacteria culture of MRSA was recovered by swabbing a 3-cm diameter growth area and resuspending it to obtain a final inoculum suspension of approximately 10^8 CFU/mL. The concentration was confirmed using historical optical density measurements. The total compound BM3103 was suspended in a 70% v/v alcohol gel formulation (Formulation A) before the introduction of bacteria, with the vehicle consisting of solely the 70% v/v alcohol gel. MRSA at 10^8 CFU/mL was challenged with equal parts of a high, medium, and low dose of BM3103, vehicle formulation, positive control (Tobramycin, 600 μg/mL), or untreated control (phosphate buffered saline). The inoculum was plated on Tryptic Soy Broth plates at 37° C. for 24 h. Plates were photographed and counted. The treatment for each experiment was done in triplicate, and the experiment was repeated three times, for a total of 9 plates per group.
# Colony counts for each treatment were tabulated and the Log of the colony forming units/mL (Log CFU/mL) was determined. The mean and standard deviation of the Log CFU/mL were calculated for each treatment. A one-way analysis of variance was performed at a 95% confidence interval.
# [2] = test system: NEB 5 α competent E. coli; assay: Bacterial colony forming assay (Examples 6-9); assay type: cell-based; conditions: for Effect on E. coli colony count: PEG-400/HPβCD mixed into alcohol gel, FIG. 1; for Inhibition of E. coli growth: alcohol gel formulation, FIG. 2
# Protocol: NEB 5 α competent E. coli were retrieved from frozen cultures and grown overnight in a bacterial incubator at 37° C. Proliferating cultures of bacteria were used in a colony forming assay by adding 25 μL of bacteria from the overnight culture to 10 mL of fresh Lysogeny Broth (LB; Bertani, G. (2004). “Lysogeny at mid-twentieth century: P1, P2, and other experimental systems”. Journal of Bacteriology. 186 (3): 595-600. PMC 321500. PMID 14729683. doi:10.1128/JR.186.3.595-600.2004). 1 mL of this diluted bacteria was added to various dilutions of formulations of substituted tolan compounds as described in Table C, below and in charts of the corresponding Figures.
# One mL of each formulation was mixed with 1 mL of diluted bacteria in LB and put onto agar plates. Alcohol gels were allowed to dry and incubated overnight for 16-18 hrs. Control plates consisted of 2 mL alcohol gel plus 1 mL diluted bacteria, resulting in a colony count of less than 10 colonies, a 1 mL alcohol gel plus 1 mL diluted bacteria, resulting in a partial lawn of bacteria (colonies were too close to count appropriately), 1 mL diluted bacteria alone, resulting in a full lawn of bacteria (no distinguishable colonies), and an appropriate dilution of PEG-400 and HPβCD into 1 mL of alcohol gel plus 1 mL diluted bacteria, resulting in a lawn of bacteria. Plate area was then selected and the Image J colony counter was used to obtain colony counts (Size (pixels squared) 5-1000 and circularity 0.5-1).
# MRSA USA 400 = assay: Bacterial cell death, DAPI/propidium iodide staining; assay type: cell-based, Staphylococcus aureus; conditions: 24 h treatment; 0.002 mM to 0.0625 mM; FIG. 13
# Protocol: In order to confirm that treatment with BM3103 induced MRSA USA 400 bacterial cell death, both untreated cells and cells treated with BM3103 were stained with a combination of DAPI (nuclear stain) and Propidium iodide (PI, Live dead stain). In a healthy cell, PI is not able to cross the cell membrane and produces no fluorescent signal. If the cell is dead or has a compromised cell membrane it will bind DNA and fluoresces between 535 nm excitation and 617 nm emission. MRSA USA 400 were plated in a well plate at 10^8 CFU/mL in combination with BM3103 treatment or no treatment. Plates were placed at 37° C. for 24 h. Bacteria cells were co-stained with DAPI and PI at 50 μg/mL and 500 μg/mL, respectively, for 15 min at room temperature. Wells were washed with warmed phosphate buffered saline (PBS) and maintained in PBS throughout the imaging acquisition process. Images were captured using the same exposure limits for each filter. […] Concentrations above 0.0625 mM gave a similar result.
structure (smiles),measurement,setting,value
"COc1ccc(C#Cc2ccc(O)cc2)cc1 [BM3103, 4-hydroxy-4′-methoxytolan]",Effectiveness against wild type E. Coli,wild type E. Coli,effective
same,Reduction in MRSA USA 300 counts compared to the positive control,"[1]; all three doses (0.05, 0.25, 0.5% w/v) vs Tobramycin 600 μg/mL",significantly greater reduction
same,Reduction of MRSA USA 300 counts,"[1]; high dose 0.5% w/v, 22 mM, alcohol gel",approximately 8 fold
same,Reduction of MRSA USA 300 counts,"[1]; low dose 0.05% w/v, 2 mM, 70% v/v alcohol gel (Formulation A), compared to vehicle and untreated controls",over 6 fold
same,Reduction of MRSA USA 300 counts,"[1]; medium dose 0.25% w/v, 11 mM, alcohol gel, compared to vehicle and untreated control",7 fold
same,Effect on E. coli colony count,[2]; 280 μM (62.5 μg/mL) dilution,reduced the E. coli colony count considerably
same,Effect on E. coli colony count,[2]; 557 μM (125 μg/mL) dilution,reduced colonization even more
same,Inhibition of E. coli growth,[2]; 2.23 mM (500 μg/mL),inhibited E. coli growth completely
same,Inhibition of E. coli growth,[2]; 4.45 mM (1000 μg/mL),inhibited E. coli growth completely
same,PI staining (cell death),MRSA USA 400,dose dependent increase in PI staining
